Source: patent US20080039422A1, “Vitamin B12-Containing Compositions and Methods of Use” (Transition Therapeutics Inc., priority 2004, published 2008)
“And” between values parts separate entries of the source, which are not always exact repeats. Identical values can stand only once.

Legend:
Assay type in all cases: physicochemical
[1] = Solubility study (saturated solubility of CN-Cbl, 25°C, 16 hours, UV)
Source text: During the solubility study the following were investigated: • cosolvents (mixtures of ethanol and propylene glycol) • in-situ salt formers • surfactants • pH effects • in-situ salt formers and cosolvents Solubility Study Method
Results of CN-Cbl Solubility in Water and Determination of Equilibrium Time

[2] = Formulation of a buffer system; details: 0.025 M phosphate buffer system, pH 8
Protocol: It was also noted that changes in pH occurred during the solubility study. […] A suitable 0.025 M buffer system was developed containing 7.25 mg/ml disodium hydrogen phosphate dodecahydrate and 0.74 mg/ml sodium dihydrogen phosphate dihydrate.

[3] = Effects of temperature of heating solution on long-term stability
Protocol: To study the effect of temperature, in some experiments, the solutions were heated to only 37° C. for 15 minutes (unless otherwise noted, the solutions were prepared as described above: by heating them to 60° C. for two hours, with additional mixing by vortexing carried out for 5-10 seconds every 5-10 minutes).
The effect of heating the solutions to different temperatures on long-term stability was tested. Solutions challenged with 50 or 75 mg/ml CN-Cbl containing 20% ethanol and 20-40% propylene glycol that were prepared at 60° C. and 37° C. were compared. The concentrations of CN-Cbl in solutions prepared at 60° C. were measured after three days, and the concentrations of CN-Cbl in solutions prepared at 37° C. were measured after two weeks. No significant difference was found in the concentrations of CN-Cbl in these solutions when the challenge amount was 50 mg/ml and only a slight difference when the challenge amount was 75 mg/ml. Solutions challenged with either 50 or 75 mg/ml CN-Cbl and containing ethanol and/or propylene glycol were heated to 37° C. (in which case, the concentration of CN-Cbl was measured after two weeks incubation at room temperature) or 60° C. (in which case, the concentration of CN-Cbl was measured after three days incubation at room temperature). Additional information regarding stability was obtained in the experiments described below.

cyanocobalamin [CN-Cbl]
pH of CN-Cbl Solultion ([1]; Ref. FD4068 43A, Choline 0.111 M, 40% v/v propylene glycol, 10% v/v ethanol, Initial pH 12.80): 12.76 | pH of CN-Cbl Solution ([1]; Ref. FD4068 89B, 0.15 ml 2m HCl + 0.025M pH 5.6 citrate buffer, Choline 0.044 M): 6.97 | Saturated Solubility ([1]; Ref. FD4068 89B, 0.15 ml 2m HCl + 0.025M pH 5.6 citrate buffer, Choline 0.044 M (5.34 mg/ml), Initial pH 7.03): 52.6 mg/mL | pH of CN-Cbl Solution ([1]; Ref. FD4068 96, 0.2 ml 2M HCl + 0.025M pH 7.0 phosphate buffer, Choline 0.044 M): 7.96 | Saturated Solubility ([1]; Ref. FD4068 96, 0.2 ml 2M HCl + 0.025M pH 7.0 phosphate buffer, Choline 0.044 M (5.34 mg/ml), Initial pH 8.10): 54.5 mg/mL | pH of CN-Cbl Solution ([1]; Ref. FD4068 102A, 0.4m 2M HCl + 0.025M pH 6.8 phosphate buffer, Choline 0.088 M): 7.97 | Saturated Solubility ([1]; Ref. FD4068 102A, 0.4m 2M HCl + 0.025M pH 6.8 phosphate buffer, Choline 0.088 M (10.67 mg/ml), Initial pH 8.12): 58.5 mg/mL | pH of CN-Cbl Solution ([1]; Ref. FD4068 103, no buffer, pH adjusted with HCl, Choline 0.044 M): 7.21 | Saturated Solubility ([1]; Ref. FD4068 103, no buffer, pH adjusted with HCl, Choline 0.044 M (5.34 mg/ml), Initial pH 8.05): 54.6 mg/mL | Saturated Solubility ([1]; Ref. FD4068 107A, Choline chloride 0.044 M (6.14 mg/ml, Molar Ratio 1:1), 40% v/v propylene glycol, 10% v/v ethanol, pH adjusted to 8 with sodium hydroxide): 53.2 mg/mL | pH of CN-Cbl Solution ([1]; Ref. FD4068 107A, Choline chloride 0.044 M, 40% v/v propylene glycol, 10% v/v ethanol): 6.36 | Saturated Solubility ([1]; Ref. FD4068 108B, Choline chloride 0.221 M (30.86 mg/ml, Molar Ratio 1:5), 40% v/v propylene glycol, 10% v/v ethanol, pH adjusted to 8 with sodium hydroxide): 60.1 mg/mL | pH of CN-Cbl Solution ([1]; Ref. FD4068 108B, Choline chloride 0.221 M, 40% v/v propylene glycol, 10% v/v ethanol): 6.51 | Saturated Solubility ([1]; Ref. FD4068 109A, Choline chloride 0.133 M (18.57 mg/ml, Molar Ratio 1:3), 40% v/v propylene glycol, 10% v/v ethanol, pH adjusted to 8 with sodium hydroxide): 57.4 mg/mL | pH of CN-Cbl Solution ([1]; Ref. FD4068 109A, Choline chloride 0.133 M, 40% v/v propylene glycol, 10% v/v ethanol): 6.63 | Saturated Solubility ([1]; Ref. FD4068 110A, Choline chloride 0.443 M (61.81 mg/ml, Molar Ratio 1:10), 40% v/v propylene glycol, 10% v/v ethanol, pH adjusted to 8 with sodium hydroxide): 66.6 mg/mL | pH of CN-Cbl Solution ([1]; Ref. FD4068 110A, Choline chloride 0.443 M, 40% v/v propylene glycol, 10% v/v ethanol): 6.40 | Saturated Solubility ([1]; Ref. FD4068 112A, Choline chloride 0.443 M (61.81 mg/ml, 1:10), 40% v/v propylene glycol, 10% v/v ethanol, 0.025 M phosphate buffer pH 8): 66.8 mg/mL | pH of CN-Cbl Solution ([1]; Ref. FD4068 112A, Choline chloride 0.443 M, 40% v/v propylene glycol, 10% v/v ethanol, 0.025 M phosphate buffer): 7.93 | Saturated Solubility ([1]; Ref. FD4068 112B, Choline chloride 0.184 M (25.75 mg/ml, 1:5), 40% v/v propylene glycol, 10% v/v ethanol, 0.025 M phosphate buffer pH 8): 62.7 mg/mL | pH of CN-Cbl Solution ([1]; Ref. FD4068 112B, Choline chloride 0.184 M, 40% v/v propylene glycol, 10% v/v ethanol, 0.025 M phosphate buffer): 7.97 | Saturated Solubility ([1]; Water, Equilibrium Time 16 hours): 15.25 mg/mL | Saturated Solubility ([1]; Water, Equilibrium Time 24 hours): 15.47 mg/mL | Saturated Solubility ([1]; Water, Equilibrium Time 40 hours): 15.27 mg/mL | Saturated Solubility, mean ([1]; Water, mean of equilibrium times 16, 24, 40 hours): 15.33 mg/mL | pH of CN-Cbl Solution ([1]; saturated in 0.1 M Choline (12.12 mg/ml)): 12.5 and 12.49 | pH of CN-Cbl Solution ([1]; saturated in 0.1 M Diethanolamine (10.51 mg/ml)): 10.15 | pH of CN-Cbl Solution ([1]; saturated in 0.1 M L-arginine (17.42 mg/ml)): 10.22 | pH of CN-Cbl Solution ([1]; saturated in 0.1 M L-lysine (16.42 mg/ml)): 9.59 | pH of CN-Cbl Solution ([1]; saturated in 0.1 M Meglumine (19.52 mg/ml)): 10.70 | pH of CN-Cbl Solution ([1]; saturated in 0.1 M Triethanolamine (14.92 mg/ml)): 9.26 | pH of CN-Cbl Solution ([1]; saturated in 0.1 M Triethylamine (10.12 mg/ml)): 11.42 | reduction of pH of the buffered solution on addition of CN-Cbl [2]: 0.1 pH unit | Conc of CN-Cbl ([3]; heated to 37 degrees, After 2 weeks at Room Temperature, challenge 50 mg/mL, ethanol 20%, PG 20%): 47080 µg/mL | Conc of CN-Cbl ([3]; heated to 37 degrees, After 2 weeks at Room Temperature, challenge 50 mg/mL, ethanol 20%, PG 30%): 49780 µg/mL | Conc of CN-Cbl ([3]; heated to 37 degrees, After 2 weeks at Room Temperature, challenge 50 mg/mL, ethanol 20%, PG 40%): 49870 µg/mL | Conc of CN-Cbl ([3]; heated to 37 degrees, After 2 weeks at Room Temperature, challenge 75 mg/mL, ethanol 20%, PG 20%): 38390 µg/mL | Conc of CN-Cbl ([3]; heated to 37 degrees, After 2 weeks at Room Temperature, challenge 75 mg/mL, ethanol 20%, PG 30%): 59620 µg/mL | Conc of CN-Cbl ([3]; heated to 37 degrees, After 2 weeks at Room Temperature, challenge 75 mg/mL, ethanol 20%, PG 40%): 75820 µg/mL | Conc of CN-Cbl ([3]; heated to 60 degrees, After 3 days at Room Temperature, challenge 50 mg/mL, ethanol 0%, PG 0%): 12850 µg/mL | Conc of CN-Cbl ([3]; heated to 60 degrees, After 3 days at Room Temperature, challenge 50 mg/mL, ethanol 20%, PG 0%): 24410 µg/mL | Conc of CN-Cbl ([3]; heated to 60 degrees, After 3 days at Room Temperature, challenge 50 mg/mL, ethanol 20%, PG 10%): 32320 µg/mL | Conc of CN-Cbl ([3]; heated to 60 degrees, After 3 days at Room Temperature, challenge 50 mg/mL, ethanol 20%, PG 20%): 49870 µg/mL | Conc of CN-Cbl ([3]; heated to 60 degrees, After 3 days at Room Temperature, challenge 50 mg/mL, ethanol 20%, PG 30%): 48330 µg/mL | Conc of CN-Cbl ([3]; heated to 60 degrees, After 3 days at Room Temperature, challenge 50 mg/mL, ethanol 20%, PG 40%): 50360 µg/mL | Conc of CN-Cbl ([3]; heated to 60 degrees, After 3 days at Room Temperature, challenge 75 mg/mL, ethanol 0%, PG 0%): 14010 µg/mL | Conc of CN-Cbl ([3]; heated to 60 degrees, After 3 days at Room Temperature, challenge 75 mg/mL, ethanol 20%, PG 0%): 24410 µg/mL | Conc of CN-Cbl ([3]; heated to 60 degrees, After 3 days at Room Temperature, challenge 75 mg/mL, ethanol 20%, PG 10%): 30100 µg/mL | Conc of CN-Cbl ([3]; heated to 60 degrees, After 3 days at Room Temperature, challenge 75 mg/mL, ethanol 20%, PG 20%): 60780 µg/mL | Conc of CN-Cbl ([3]; heated to 60 degrees, After 3 days at Room Temperature, challenge 75 mg/mL, ethanol 20%, PG 30%): 76600 µg/mL | Conc of CN-Cbl ([3]; heated to 60 degrees, After 3 days at Room Temperature, challenge 75 mg/mL, ethanol 20%, PG 40%): 74280 µg/mL
